# Source: patent US20090012049A1, “Use of an Unsaponifiable Extract of Plant Pulp in the Treatment of Skin Ageing” (priority 2006, published 2009)
# Values joined by “and” are separate entries in the source; they are usually repeats but may differ in a detail not shown here. Identical values can stand only once.
# Tests used:
# [1] = compared to the triterpene fraction; cited from earlier work
# [2] = system: murine fibroblast line L929; assay: 3D (DNA Damage Detection) test after H2O2 stress; type: cell-based; settings: 3 μg/ml, L929 pre-treated 16 hours, H2O2 100 μM 30 minutes; for % DNA protection: basal control 100%, H2O2 stressed 0%
# From the text: They decided to generate the lesions to DNA by means of H2O2 stress and to analyze indirectly the damage thereby caused, by analyzing the repair reaction. For that purpose, a kit referred to as the 3D (standing for “DNA Damage Detection”) test was used. This biochemical test mimics, in vitro, the repair reaction by means of excision (Salles B. et al Anal. Biochem. 1995; 232: 37-42 and Salles B. et al Biochimie 1999; 81: 53-58). The 3D test is based on the repairing of DNA lesions using purified human cell extracts.
# The products were assessed using the murine fibroblast line L929. The cells are pre-treated with the products (Table III) for 16 hours and are then stimulated with H2O2 (Hydrogen Peroxide 3%—Ref. GIFRER—Laboratoire Gifrer Barbezat) at 100 μM for 30 minutes.
# The principle is as follows: After damaging the genomic DNA (oxidative treatment), the cells are lysed. The lysate is deposited on a microplate coated with polylysine: • 1—Adsorption of the DNA • 2—Incubation of the DNA with a protein extract (enriched with repair enzymes) and a pool of nucleotides wherein one nucleotide is labeled with biotin (dUTP-Biotin)—Repair of the lesions and incorporation of the “dUTP-Biotin” labeled nucleotides in the DNA. • 3—Incubation with an “Avidin-Peroxidase” enzyme complex—Recognition by the avidin of the incorporated dUTP-Biotin. • 4—Addition of a luminescent peroxidase substrate and quantification of the emitted signal, which is proportional to the number of repaired lesions.
# The test performance protocol is followed in accordance with the instructions of the kit supplier (Solyscel 3D Test—Ref: SFRIDN013— AES Laboratoire). At the end of the reaction, the plate is read in a luminometer (MITHRAS LB940-BERTHOLD).
# The ratio below allows the percentage protection against the causation of lesions to DNA by oxidative stress to be calculated for each concentration of product tested (the Intensity of Luminescence—or IL—is an expression of the quantity of DNA lesions).
# The values indicated in this Table are percentages of inhibition (or % protection) of lesions to DNA following exogenous oxidative stress, compared to “basal control” cells (100%) and “H2O2 stressed” cells (0%).
# [3] = system: murine fibroblast line L929; assay: TBARS test: lipid peroxidation after H2O2-Fe2+/Fe3+ stress; type: cell-based; settings: L929 pre-treated 16 hours, H2O2-Fe2+/Fe3+ 1 hour
# Procedure: In order to assess membrane degradation, the authors of the invention have measured lipid peroxidation by means of an in vitro assay of complexes formed between the products of lipid oxidation and thiobarbituric acid. These complexes are called TBARS (standing for “Thiobarbituric Acid Reactive Substances”) and give their name to the test: the TBARS Test.
# In order to mimic chemical oxidative stress, the fibroblast line L929 was treated with a complex composed of hydrogen peroxide (H2O2) and iron (Fe^2+/Fe^3+), accordingly reproducing Fenton's reaction, a source of OFRs and, more particularly, the free hydroxyl radical (OH^∘) (Vessey D. A. et al J. Invest Dermatol. 1992; 99: 859-63): H2O2+Fe^2+→OH^∘+OH^−+Fe^3+.
# The products were assessed using the murine fibroblast line L929. The cells are pre-treated with the various concentrations of products (Table I) for 16 hours and then stimulated with the H2O2—Fe^2+/Fe^3+ complex for 1 hour. The LK0304 batch of unsaponifiable extract of pulp of fruit of the argan tree was prepared in accordance with Example 2.
# The peroxidation of membrane lipids is analyzed by TBARS measurement (according to Morliére P. et al Biochim. Biophys. Acta. 1991; 1084: 261-268).
# In an acid medium, at 95° C., complexes referred to as TBARS (standing for “ThioBarbituric Acid Reactive Substances”) are formed between the lipid oxidation products (malondialdehyde or MDA) and thiobarbituric acid (TBA), which can be fluorescence-assayed relative to a MDA standard series. The TBARS assay value is then expressed in pmol/μg of proteins. The proteins and TBARS are assayed in the intracellular medium.
# Starting from the calculation of the TBARS in pmol/μg of proteins, the protective efficacy of the various products against oxidation of the lipid membranes was calculated as follows.
# [4] = at a dose lower than the triterpene fraction A devoid of erythrodiol; cited from earlier work
molecule,measurement,setting,value
CC1(C)CC[C@]2(CO)CC[C@]3(C)C(=CC[C@@H]4[C@@]5(C)CC[C@H](O)C(C)(C)[C@@H]5CC[C@]43C)[C@@H]2C1 [Erythrodiol],Benefit with respect to UVA and UVB,[1],only mediocre benefit
same,% lesions to DNA,[2],1%
same,Intensity of luminescence,[2],5520
same,% DNA protection,[2],99%
same,% DNA protection,[2]; listed as erythrodiol,the most active
same,Protection of membrane lipids in % Mean,[3]; 0.3 μg/ml,33% and 33.75%
same,Protection of membrane lipids in % Mean,[3]; 1 μg/ml,38.43%
same,Toxicity,[4],toxic
C=C(C)[C@@H]1CC[C@]2(C)CC[C@]3(C)[C@H](CC[C@@H]4[C@@]5(C)CC[C@H](O)C(C)(C)[C@@H]5CC[C@]43C)[C@@H]12 [Lupeol],% lesions to DNA,[2],58.2%
same,Intensity of luminescence,[2],9020
same,% DNA protection,[2],41.8%
C[C@H]1[C@H](C)CC[C@]2(C)CC[C@]3(C)C(=CC[C@@H]4[C@@]5(C)CC[C@H](O)C(C)(C)[C@@H]5CC[C@]43C)[C@H]12 [α-Amyrine],% lesions to DNA,[2],52.4%
same,Intensity of luminescence,[2],8663.3
same,% DNA protection,[2],47.6%
CC1(C)CC[C@]2(C)CC[C@]3(C)C(=CC[C@@H]4[C@@]5(C)CC[C@H](O)C(C)(C)[C@@H]5CC[C@]43C)[C@@H]2C1 [β-Amyrine],% lesions to DNA,[2],125.4%
same,Intensity of luminescence,[2],13133.3
same,% DNA protection,[2],−25.4%
Vitamin E [Vit E],Protection of membrane lipids in % Mean,[3]; 400 μg/ml-928.7 μM,56.62%
same,Protection of membrane lipids in % Mean,"[3]; 400 μg/ml-928.7 μM, listed as Vitamin E",about 56%
